Patent US10590086B2, “Pharmaceutical compound” (IOmet Pharma Ltd., priority 2014, dated 2020)

Experiments:
TDO = TDO (Homo sapiens, UniProt P48775); assay: A172 kynurenine cell-based assay; set-up: This assay utilised cancer cells which expressed either TDO or IDO; endogenous in cells; host or cells: A172 (human glioblastoma); settings: A172 human glioblastoma cells, 48 hours, 500 μM L-tryptophan; read-out: A172 Kynurenine cell based assay pIC50 (converted)
Description: (§1) Exemplary compounds of the invention were prepared, and tested to determine their effect as TDO and/or IDO inhibitors. Two different assays were employed: 1. a cell-based assay for detecting the effect of test compounds on kynurenine production in two different cancer cell types. This assay utilised cancer cells which expressed either TDO or IDO and as such was used as a means of testing compound activity at these two enzymes in a cell-based context. 2. a TDO and IDO biochemical coupled assay which utilised recombinantly produced and purified TDO and IDO enzymes in combination with the enzyme formamidase. This coupled enzyme system allowed conversion of N-formylkynurenine produced by TDO or IDO activity to kynurenine which was then quantified by fluorescence following addition of Erhlich's Reagent The protocols for these are set out below.
(§2) Cell Based Assay for Detection of Kynurenine Produced by TDO and/or IDO
(§3) A172 (human glioblastoma) and SKOV3 (human ovarian adenocarcinoma) cells were seeded in a 96 well plate at 30,000 or 40,000 cells per well respectively in phenol red-free RPMI supplemented with 10% FCS, 2 mM L-glutamine and 500 μM L-tryptophan. IDO expression was induced in the SKOV3 cells by the addition of 500 ng/ml IFN-γ. Cells were incubated at 37° C. with or without the addition of test compound. After 48 hours, the cells were removed by centrifugation and Erhlich's reagent was added to the supernatant. The Erhlich's reagent was incubated for 5 minutes before the absorbance was read at 490 nm.

IDO = IDO (Homo sapiens, UniProt P14902); assay: SKOV3 kynurenine cell-based assay (IDO induced by IFN-γ); set-up: IDO expression was induced in the SKOV3 cells by the addition of 500 ng/ml IFN-γ; endogenous in cells; host or cells: SKOV3 (human ovarian adenocarcinoma), induced with IFN-γ; settings: SKOV3 human ovarian adenocarcinoma cells, 500 ng/ml IFN-γ, 48 hours, 500 μM L-tryptophan; read-out: SKOV3 Kynurenine cell based assay pIC50 (converted)
Chain of IDO (P14902 whole entry): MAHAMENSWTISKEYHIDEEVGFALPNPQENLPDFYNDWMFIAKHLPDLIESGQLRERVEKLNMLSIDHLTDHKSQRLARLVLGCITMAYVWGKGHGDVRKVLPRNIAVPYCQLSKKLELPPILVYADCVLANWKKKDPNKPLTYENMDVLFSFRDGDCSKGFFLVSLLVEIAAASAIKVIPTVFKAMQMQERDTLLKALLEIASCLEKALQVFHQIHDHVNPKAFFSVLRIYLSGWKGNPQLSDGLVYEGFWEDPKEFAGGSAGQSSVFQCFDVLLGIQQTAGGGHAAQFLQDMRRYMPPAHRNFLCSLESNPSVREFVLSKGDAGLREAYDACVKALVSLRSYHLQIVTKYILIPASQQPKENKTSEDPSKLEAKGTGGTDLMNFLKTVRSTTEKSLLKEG
Description: as §1, §2, §3

Chain of TDO (P48775 whole entry): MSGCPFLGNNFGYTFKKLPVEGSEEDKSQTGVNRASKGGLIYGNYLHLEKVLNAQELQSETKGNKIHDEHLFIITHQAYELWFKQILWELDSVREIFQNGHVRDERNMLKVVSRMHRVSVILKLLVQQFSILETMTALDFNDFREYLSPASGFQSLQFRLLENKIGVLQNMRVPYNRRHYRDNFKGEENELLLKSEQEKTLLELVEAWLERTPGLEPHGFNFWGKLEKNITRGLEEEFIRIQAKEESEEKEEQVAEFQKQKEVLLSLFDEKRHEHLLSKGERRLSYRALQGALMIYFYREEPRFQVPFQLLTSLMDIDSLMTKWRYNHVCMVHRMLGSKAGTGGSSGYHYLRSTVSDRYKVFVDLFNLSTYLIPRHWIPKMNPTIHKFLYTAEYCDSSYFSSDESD

| SMILES | IC50 (TDO) | IC50 (IDO) |
| --- | --- | --- |
| CC(=O)N1CCC(c2cc(C3CC3)cc3[nH]ncc23)CC1 [Compound 86] | 3.24 to 31.6 µM | 3.24 to 31.6 µM |
| CC(=O)N1CCC(c2cc(C(F)(F)F)cc3[nH]ncc23)CC1 [Compound 99] | < 3.16 µM | 3.24 to 31.6 µM |
| CC(=O)N1CCN(c2cc(Br)cc3[nH]ncc23)CC1(C)C [Compound 90] | < 3.16 µM | < 3.16 µM |
| CC(=O)N1CCN(c2cc(Cl)cc3[nH]ncc23)CC1C (stereo not shown) [Compound 74] | < 3.16 µM | 3.24 to 31.6 µM |
| CS(=O)(=O)N1CCCN(c2cccc3[nH]ncc23)CC1 [Compound 60] | 3.24 to 31.6 µM | > 100 µM |
| CC(=O)N1CCC(Oc2cccc3[nH]ncc23)CC1 [Compound 53] | 3.24 to 31.6 µM | < 3.16 µM |
| O=S(=O)(C1CCCC1)N1CCN(c2cc(Cl)cc3[nH]ncc23)CC1 [Compound 57] | < 3.16 µM | 3.24 to 31.6 µM |
| CS(=O)(=O)NCC1CCN(c2cc(Cl)cc3[nH]ncc23)CC1 [Compound 98] | < 3.16 µM | 3.24 to 31.6 µM |
| CC(=O)N1CCN(c2cc(Cl)cc3[nH]ncc23)CC1(C)C [Compound 46] | < 3.16 µM | < 3.16 µM |
| CC1CN(c2cccc3[nH]ncc23)CCN1S(C)(=O)=O (stereo not shown) [Compound 29] | 3.24 to 31.6 µM | 32.4 to 100 µM |
| CS(=O)(=O)N1CC=C(c2cc(Cl)cc3[nH]ncc23)CC1 [Compound 77] | < 3.16 µM | 3.24 to 31.6 µM |
| Cc1ccc(C2CCN(S(C)(=O)=O)CC2)c2cn[nH]c12 [Compound 39] | > 100 µM | 32.4 to 100 µM |
| CC(C)(F)C(=O)N1CCN(c2cc(Cl)cc3[nH]ncc23)CC1 [Compound 118] | < 3.16 µM | 3.24 to 31.6 µM |
| NS(=O)(=O)N1CCN(c2cccc3[nH]ncc23)CC1 [Compound 20] | 3.24 to 31.6 µM | 3.24 to 31.6 µM |
| Clc1cc(N2CCN(c3ccccc3)CC2)c2cn[nH]c2c1 [Compound 92] | < 3.16 µM | 3.24 to 31.6 µM |
| CC(=O)N1CCN(c2cc(C(F)(F)F)cc3[nH]ncc23)CC1 [Compound 48] | < 3.16 µM | 3.24 to 31.6 µM |
| CC(=O)N1CCN(c2cc(F)cc3[nH]ncc23)CC1 [Compound 51] | 3.24 to 31.6 µM | > 100 µM |
| O=S1(=O)CCC2CN(c3cc(Cl)cc4[nH]ncc34)CCN21 (stereo not shown) [Compound 89] | < 3.16 µM | 3.24 to 31.6 µM |
| CCC1CN(c2cc(Cl)cc3[nH]ncc23)CCN1S(C)(=O)=O (stereo not shown) [Compound 83] | < 3.16 µM | 3.24 to 31.6 µM |

| SMILES | IC50 (TDO) | IC50 (IDO) |
| --- | --- | --- |
| CC(C)S(=O)(=O)N1CCN(c2cc(Cl)cc3[nH]ncc23)CC1 [Compound 61] | < 3.16 µM | 3.24 to 31.6 µM |
| CCC1CN(c2cc(Cl)cc3[nH]ncc23)CCN1C(C)=O (stereo not shown) [Compound 84] | < 3.16 µM | 3.24 to 31.6 µM |
| O=S(=O)(CC(F)(F)F)N1CCN(c2cccc3[nH]ncc23)CC1 [Compound 18] | 32.4 to 100 µM | > 100 µM |
| CC(C)(O)C(=O)N1CCN(c2cc(Cl)cc3[nH]ncc23)CC1 [Compound 111] | < 3.16 µM | 3.24 to 31.6 µM |
| COc1cc(N2CCN(C(C)=O)CC2)c2cn[nH]c2c1 [Compound 70] | 3.24 to 31.6 µM | > 100 µM |
| CCCS(=O)(=O)N1CCN(c2cccc3[nH]ncc23)CC1 [Compound 16] | 3.24 to 31.6 µM | 32.4 to 100 µM |
| CC(=O)N1[C@H](C)CN(c2cc(Cl)cc3[nH]ncc23)C[C@@H]1C [Compound 113] | < 3.16 µM | 3.24 to 31.6 µM |
| NC(=O)N1CCN(c2cc(Cl)cc3[nH]ncc23)CC1 [Compound 110] | < 3.16 µM | 3.24 to 31.6 µM |
| CCCS(=O)(=O)N1CCN(c2cc(Cl)cc3[nH]ncc23)CC1 [Compound 63] | < 3.16 µM | 3.24 to 31.6 µM |
| Cc1cc(N2CCN(S(C)(=O)=O)CC2)c2cn[nH]c2c1 [Compound 31] | < 3.16 µM | 32.4 to 100 µM |
| CC(C)c1cc(N2CCN(S(C)(=O)=O)CC2)c2cn[nH]c2c1 [Compound 67] | 3.24 to 31.6 µM | 32.4 to 100 µM |
| CC(=O)N1CCCN(c2cccc3[nH]ncc23)CC1 [Compound 58] | 3.24 to 31.6 µM | > 100 µM |
| CNS(=O)(=O)N1CCN(c2cc(Cl)cc3[nH]ncc23)CC1 [Compound 114] | < 3.16 µM | 3.24 to 31.6 µM |
| CN1CCN(c2cc(Cl)cc3[nH]ncc23)CC1(C)C [Compound 164] | < 3.16 µM | 32.4 to 100 µM |
| O=S(=O)(C1CC1)N1CCN(c2cc(Cl)cc3[nH]ncc23)CC1 [Compound 54] | < 3.16 µM | 3.24 to 31.6 µM |
| CNS(=O)(=O)N1CCN(c2cccc3[nH]ncc23)CC1 [Compound 24] | 3.24 to 31.6 µM | 32.4 to 100 µM |
| O=C(N1CCN(c2cc(Cl)cc3[nH]ncc23)CC1)C1(O)CC1 [Compound 116] | < 3.16 µM | 3.24 to 31.6 µM |
| CC1CN(c2cc(Cl)cc3[nH]ncc23)CCN1S(C)(=O)=O (stereo not shown) [Compound 73] | < 3.16 µM | < 3.16 µM |
| CC(=O)N1CCCN(c2cc(Cl)cc3[nH]ncc23)CC1 [Compound 71] | < 3.16 µM | 3.24 to 31.6 µM |

Next, values leading:

| IC50 (TDO) | IC50 (IDO) | SMILES |
| --- | --- | --- |
| 3.24 to 31.6 µM | 32.4 to 100 µM | CNCCNc1cc(Cl)cc2[nH]ncc12 [Compound 156] |
| < 3.16 µM | 3.24 to 31.6 µM | CC(O)C(=O)N1CCN(c2cc(Cl)cc3[nH]ncc23)CC1 (stereo not shown) [Compound 136] |
| < 3.16 µM | 3.24 to 31.6 µM | O=C(CO)N1CCN(c2cc(Cl)cc3[nH]ncc23)CC1 [Compound 129] |
| < 3.16 µM | 3.24 to 31.6 µM | CS(=O)(=O)N1CCC(F)(c2cc(Cl)cc3[nH]ncc23)CC1 [Compound 124] |
| < 3.16 µM | 3.24 to 31.6 µM | CS(=O)(=O)NC1CCN(c2cc(Cl)cc3[nH]ncc23)C1 (stereo not shown) [Compound 193] |
| > 100 µM | 3.24 to 31.6 µM | CS(=O)(=O)N1CCN(c2cc(Cl)cc3[nH]ncc23)c2ccccc21 [Compound 151] |
| < 3.16 µM | 3.24 to 31.6 µM | CC(C)S(=O)(=O)N1CCC(c2cc(Cl)cc3[nH]ncc23)CC1 [Compound 141] |
| 3.24 to 31.6 µM | 3.24 to 31.6 µM | CS(=O)(=O)N1CCC(Oc2cc(Cl)cc3[nH]ncc23)CC1 [Compound 159] |
| < 3.16 µM | 3.24 to 31.6 µM | CN(C)S(=O)(=O)N1CCN(c2cc(Cl)cc3[nH]ncc23)CC1 [Compound 119] |
| < 3.16 µM | 32.4 to 100 µM | OC1CCCN(c2cc(Cl)cc3[nH]ncc23)C1 (stereo not shown) [Compound 125] |
| 32.4 to 100 µM | > 100 µM | CS(=O)(=O)N1CCN(c2cc(N3CCCC3)cc3[nH]ncc23)CC1 [Compound 146] |
| < 3.16 µM | 32.4 to 100 µM | CC(O)c1cc(Cl)cc2[nH]ncc12 (stereo not shown) [Compound 153] |
| < 3.16 µM | 3.24 to 31.6 µM | C[C@H]1CN(S(C)(=O)=O)CCN1c1cc(Cl)cc2[nH]ncc12 [Compound 200] |
| < 3.16 µM | 3.24 to 31.6 µM | CN(C)C(=O)N1CCC(c2cc(Cl)cc3[nH]ncc23)CC1 [Compound 132] |
| < 3.16 µM | 32.4 to 100 µM | CS(=O)(=O)N1CC2CC1CN2c1cc(Cl)cc2[nH]ncc12 (stereo not shown) [Compound 202] |
| < 3.16 µM | 3.24 to 31.6 µM | CC(=O)N1CCN(c2cc(C3CC3)cc3[nH]ncc23)CC1(C)C [Compound 126] |
| < 3.16 µM | 3.24 to 31.6 µM | CS(=O)(=O)NC1CCC(c2cc(Cl)cc3[nH]ncc23)CC1 (stereo not shown) [Compound 203] |
| 3.24 to 31.6 µM | 3.24 to 31.6 µM | CS(=O)(=O)N1CCN(c2cc(C#N)cc3[nH]ncc23)CC1 [Compound 194] |
| 3.24 to 31.6 µM | 32.4 to 100 µM | CC1(C)CC(c2cccc3[nH]ncc23)CCN1S(C)(=O)=O (stereo not shown) [Compound 187] |
| 3.24 to 31.6 µM | > 100 µM | CC(=O)N1CCN(c2cc(C3CC3)cc3[nH]ncc23)CC1 [Compound 121] |
| 3.24 to 31.6 µM | 32.4 to 100 µM | CC(=O)N1CC2CC1CN2c1cc(Cl)cc2[nH]ncc12 (stereo not shown) [Compound 201] |
| > 100 µM | 32.4 to 100 µM | CS(=O)(=O)N1CCN(c2cc(C3CCCC3)cc3[nH]ncc23)CC1 [Compound 131] |
| < 3.16 µM | 32.4 to 100 µM | O=C(C1CC1)N1CCC(c2cc(Cl)cc3[nH]ncc23)CC1 [Compound 165] |
| < 3.16 µM | 3.24 to 31.6 µM | CC(=O)N1CCN(c2cc(Cl)cc3[nH]ncc23)CC12CCC2 [Compound 182] |
| < 3.16 µM | 3.24 to 31.6 µM | C[C@@H]1CN(S(C)(=O)=O)CCN1c1cc(Cl)cc2[nH]ncc12 [Compound 197] |
| < 3.16 µM | < 3.16 µM | CS(=O)(=O)N1CCN(c2cc(Cl)cc3[nH]ncc23)CC12CCC2 [Compound 181] |
| 3.24 to 31.6 µM | > 100 µM | CS(=O)(=O)N1CCC(c2cc(N3CCOCC3)cc3[nH]ncc23)CC1 [Compound 206] |
